Assays:
DU145 = test: cells; design: species or system human cancer cell lines; settings: Homo sapiens, DU-145, 48 h, read-out: DU145
HepG2 = test: cells; design: species or system human cancer cell lines; settings: Homo sapiens, HepG2, 48 h, read-out: HepG2
SKOV3 = test: cells; design: species or system human cancer cell lines; settings: Homo sapiens, SK-OV-3, 48 h, read-out: SKOV3
in vitro = settings: human, mrc5 cells
MCF7 = test: cells; design: species or system human cancer cell lines; settings: Homo sapiens, MCF7, 48 h, read-out: MCF7
MDA MB-231 = test: cells; design: species or system human cancer cell lines; settings: Homo sapiens, MDA-MB-231, 48 h, read-out: MDA MB-231
porcine brain tubulin = porcine brain tubulin (Sus scrofa, UniProt P02550+P02554); test: fluorescence-based tubulin polymerization assay; format: biochemical; settings: read-out: % inhibition at 3 μM
Sequence of porcine brain tubulin (P02550 whole entry): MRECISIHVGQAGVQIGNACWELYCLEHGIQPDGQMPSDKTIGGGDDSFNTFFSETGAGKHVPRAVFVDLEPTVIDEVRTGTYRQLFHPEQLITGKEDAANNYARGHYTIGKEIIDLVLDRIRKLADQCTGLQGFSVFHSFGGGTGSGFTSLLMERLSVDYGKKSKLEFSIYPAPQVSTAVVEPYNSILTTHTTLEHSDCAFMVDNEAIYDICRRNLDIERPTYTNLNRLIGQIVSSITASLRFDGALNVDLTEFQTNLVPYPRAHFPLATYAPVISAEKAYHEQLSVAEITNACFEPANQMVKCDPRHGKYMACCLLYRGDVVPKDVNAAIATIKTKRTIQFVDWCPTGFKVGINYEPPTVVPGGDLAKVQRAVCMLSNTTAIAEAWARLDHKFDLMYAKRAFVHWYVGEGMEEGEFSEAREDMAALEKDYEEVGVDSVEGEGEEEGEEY
Sequence of porcine brain tubulin (P02554 whole entry): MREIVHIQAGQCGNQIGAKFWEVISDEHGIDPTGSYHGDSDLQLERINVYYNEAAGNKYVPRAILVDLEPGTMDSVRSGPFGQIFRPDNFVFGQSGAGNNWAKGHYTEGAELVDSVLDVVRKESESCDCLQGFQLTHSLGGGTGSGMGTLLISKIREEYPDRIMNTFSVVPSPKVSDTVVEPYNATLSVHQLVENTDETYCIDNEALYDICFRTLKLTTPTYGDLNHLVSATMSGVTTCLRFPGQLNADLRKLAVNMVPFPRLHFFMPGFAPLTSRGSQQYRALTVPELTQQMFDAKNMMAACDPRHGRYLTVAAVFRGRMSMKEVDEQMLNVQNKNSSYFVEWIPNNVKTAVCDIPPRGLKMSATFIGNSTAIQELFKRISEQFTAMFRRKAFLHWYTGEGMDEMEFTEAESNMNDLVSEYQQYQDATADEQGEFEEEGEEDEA

GI50 (DU145)	GI50 (HepG2)	GI50 (SKOV3)	GI50 (MCF7)	inhibition at 3 µM (porcine brain tubulin)	Compound	CC50 at 48 h (in vitro)	GI50 (MDA MB-231)
> 10 µM	> 10 µM	0.15 ± 0.05 µM	> 10 µM	–	Clc1ccc2nc(Cl)nc(-c3ccccc3Cl)c2c1 [ATS-1]	136 ± 1.63 µM	> 10 µM
2.27 ± 0.37 µM	> 10 µM	0.47 ± 0.06 µM	> 10 µM	–	Clc1ccc2nc(NN=Cc3c(Cl)cccc3Cl)nc(-c3ccccc3)c2c1 [ATS-3]	159 ± 1.06 µM	8.84 ± 0.12 µM
0.81 ± 0.07 µM	1.35 ± 0.45 µM	2.75 ± 0.35 µM	> 10 µM	–	O=[N+]([O-])c1ccc(C=NNc2nc(-c3ccccc3)c3cc(Cl)ccc3n2)o1 [ATS-4]	162 ± 1.82 µM	> 10 µM
> 10 µM	> 10 µM	10.3 ± 0.62 µM	0.6 ± 0.07 µM	59%	Clc1ccc2nc(Nc3c(Cl)cccc3Cl)nc(-c3ccccc3)c2c1 [ATS-7]	141 ± 1.41 µM	> 10 µM
< 0.1 µM	< 0.1 µM	1.17 ± 0.52 µM	< 0.1 µM	–	COc1cccc2c1C(=O)c1c(O)c3c(c(O)c1C2=O)C[C@@](O)(C(=O)CO)C[C@@H]3O[C@H]1C[C@H](N)[C@H](O)[C@H](C)O1 [Doxorubicin]	–	< 0.1 µM

Compound	GI50 (DU145)	GI50 (HepG2)	GI50 (SKOV3)	GI50 (MCF7)	inhibition at 3 µM (porcine brain tubulin)	CC50 at 48 h (in vitro)	GI50 (MDA MB-231)
COC(=O)Nc1nc2ccc(C(=O)c3cccs3)cc2[nH]1 [nocodazole]	0.17 ± 0.07 µM	7.06 ± 0.54 µM	< 0.1 µM	< 0.1 µM	–	129 ± 1.48 µM	2.8 ± 0.51 µM

Reference: doi:[…]/108654v1 (biorxiv, 2017)
